Drawing on ChEMBL document CHEMBL3507680, “University of Dundee, Gates Library screen for HepG2 cell viability”, this text covers cytotoxicity for 99 molecules.

The data set can be described thus: Human HepG2 cell viability assay in 384 well format. The format is toxicity, cell-based. Also on record: dose 125 nL, time 70.5 hour; concentration not given beside the values. Particulars: HepG2 cells, read-out: Inhibition.
For the molecule `COc1ccc(CN(C)[C@@H]2CN(C(=O)c3cccn3C)C[C@H]2O)cc1`, the cytotoxicity at 70.5 h was 16.9%.

As to `CC1(Cc2ccc(F)cc2)Cc2cc(C(=O)NCCO)ccc2O1` (centres undefined), the cytotoxicity at 70.5 h is -0.493%. The figure for `Cc1noc(CC2CCN(Cc3ccc(CCC(C)(C)O)cc3)CC2)n1` is -10.5%; for `CCOc1ccc(NC(=O)c2oc(CC)cc2C)cc1CO` it is -3.11%; for `C[C@@H]1C[C@H]2CN(Cc3nccs3)C[C@H]2O1` it is -10.9%. The figure for `CN(Cc1ccco1)C(=O)NC1CCCN(c2ncccn2)C1` (centres undefined) is 8.71%. Consider `CN1CCc2c(sc3c2C(=O)NC(/C=C/c2ccccc2)N3)C1` (centres undefined), for which the cytotoxicity at 70.5 h was -11.3%. The figure for `CCNC(=O)N1CCC(Cc2cccc(C(N)=O)c2)C1` (centres undefined) is -5.09%; for `CCc1cccc(NC(=O)CNc2ccccc2OCCC(=O)OC)c1` it is -0.0313%.

Turning to `O=C1CC2(CCCNC2)C(=O)N1Cc1ccccc1` (centres undefined), the cytotoxicity at 70.5 h stood at 18.9%. The result for `CCn1ccnc1CN1CCCN(C(=O)COC2CCCCC2)CC1` reads -3.09%; that for `CC(=O)N(C)CC(=O)NC1(c2ccc(Cl)c(Cl)c2)CC1`, -10%. Turning to `Cc1n[nH]c(C)c1C1CCCN1C(=O)NCCSC(C)(C)C` (centres undefined), the cytotoxicity at 70.5 h was -7.87%. The result for `CC(C)OC(=O)NCc1ccc(NCc2cnn(C(C)(C)C)c2)cc1` reads -13.1%; that for `CCOc1ccc(C(C)Nc2ncnc3c2CCNC3)cc1OCC` (centres undefined), -12%; that for `O=S(=O)(C1CC1)N1CCOC2(CCCN(c3ccccc3)C2)C1` (centres undefined), 7.04%.

As to `Cc1n[nH]c(C)c1CC(=O)N1CCCN(C)C2(CCN(C)CC2)C1`, the cytotoxicity at 70.5 h is 23.3%. The result for `CC(CC(=O)NCCNS(C)(=O)=O)C1CCCCC1` (centres undefined) reads -13.2%; that for `Cc1ccc(S(=O)(=O)NC(C)C#N)cc1Br` (centres undefined), -3.42%.

With `C=C(C)CN1CCC(NC(=O)NCCc2cccc(C(N)=O)c2)CC1`, the cytotoxicity at 70.5 h is -3.95%. As for `CC1CCN(C(=O)Cn2cc(I)cn2)CC1`, the cytotoxicity at 70.5 h came to 0.739%. The result for `Cc1ccc(N2C[C@H]3CCC[C@@H](CN(C)C)[C@H]3C2)nn1` reads -0.102%; that for `CCc1nc(CN2CCCN(C(=O)CCSC)CC2)cs1`, -15.8%. Consider `COc1cccc(C(O)CNC(=O)CC2CCCCC2)c1` (centres undefined), for which the cytotoxicity at 70.5 h is -8.34%. Consider `NS(=O)(=O)CCNC(=O)c1ccc(OCc2ccccc2)nc1`, for which the cytotoxicity at 70.5 h amounted to 20.5%.

As to `CN(CC(F)(F)F)C(=O)c1ccc(F)c(NS(C)(=O)=O)c1`, the cytotoxicity at 70.5 h is -1.16%.

Take `CCSc1cc(C(=O)NC(C)c2cccc(N3CCOC3=O)c2)ccn1` (centres undefined): the cytotoxicity at 70.5 h stood at 16.4%. The result for `Cc1cccnc1CN1CCN(C[C@]2(O)CCCN3CCCC[C@@H]32)CC1` reads -6.65%.

As to `CC(C)n1cnnc1C1CCCN(S(=O)(=O)CCCC#N)C1` (centres undefined), the cytotoxicity at 70.5 h is -35.2%.

As for `CCC(NC(=O)C1CCN(S(C)(=O)=O)CC1)c1ccc(OC)c(C)c1` (centres undefined), the cytotoxicity at 70.5 h is -9.2%. The figure for `COCCOCC(=O)NC(C#N)c1cccc(Cl)c1Cl` (centres undefined) is -6.94%; for `CC(=O)N1CCCC1c1ccc(CN2CCOCC2)cn1` (centres undefined) it is 16.7%; for `CC(=O)C1(c2ccccc2)CCN(C(=O)c2ccn3nnnc3c2)CC1` it is -13.3%. The figure for `Cc1cc(C)nc(C2CCCN2C(=O)c2cnccn2)n1` (centres undefined) is -2.97%; for `CCOc1ccc(CN(C)C(=O)c2nc(N3CCCC3)ncc2Cl)cc1` it is -8.28%. The figure for `O=C(Nc1cc(C(F)(F)F)c[nH]c1=O)C1CCCNC1` (centres undefined) is -8%. `Cc1ccc(NC2CCN(C(=O)c3n[nH]c4ccccc34)CC2)nn1`: the cytotoxicity at 70.5 h came out at 1.27%. Turning to `CCOc1ccc(C(=O)N2CCC(Oc3ccccc3)(C(=O)O)CC2)o1`, the cytotoxicity at 70.5 h was -3.49%.

As for `O=c1[nH]nc2c(S(=O)(=O)N3CCN(c4ccc(F)cc4)CC3)cccn12`, the cytotoxicity at 70.5 h was 20.6%. For `Cc1cc(C(=O)N2CCCCC2c2nc(C)cs2)[nH]n1` (centres undefined), the cytotoxicity at 70.5 h is -7.87%. Take `CS(=O)(=O)CCNC1CCCN(Cc2noc(C3CC3)n2)C1` (centres undefined): the cytotoxicity at 70.5 h was -13.7%. As for `Cc1ccc(-n2nnc(C(=O)NCC(F)(F)F)c2C2CC2)cc1`, the cytotoxicity at 70.5 h is -5.02%. Regarding `Cc1ccc(N2CCCC(NCc3ccc4c(c3)OCCO4)C2)nn1` (centres undefined), the cytotoxicity at 70.5 h was 1.38%. Regarding `CCC(O)C1CCN(C(=O)Nc2nc(-c3ccccc3)ns2)CC1` (centres undefined), the cytotoxicity at 70.5 h stood at 13.7%. The figure for `O=C(c1cccs1)N1CCc2ncnc(C3CCOC3)c2CC1` (centres undefined) is -14.6%; for `Cc1nc2ccc(C(=O)N3C[C@@H](O)[C@H](N4CCOCC4)C3)cc2[nH]1` it is 12%; for `O=C(Nc1ccccc1-c1cccs1)N1CCOCC1` it is -13.2%. The result for `Cc1noc(CCCC(=O)Nc2cc(C(F)(F)F)c[nH]c2=O)n1` reads -3.91%; that for `Cc1ccccc1C(C(=O)NCCN1CCC(CO)CC1)N(C)C` (centres undefined), -3%. The figure for `N#Cc1cccc(C(=O)Nc2ccc([C@@H](O)[C@H]3COCC(=O)N3)cc2)c1` is -9.14%. Regarding `COc1ccccc1C1=NOC(CC2(C(=O)NCCO)CCOCC2)C1` (centres undefined), the cytotoxicity at 70.5 h was 0.737%. The figure for `CNC(=O)CCc1cc(C)nc(C2CCN(CC(=O)N(C)C)CC2)c1` is -6.28%. With `COc1ccccc1CNC(Cn1cncn1)c1ccccc1` (centres undefined), the cytotoxicity at 70.5 h is -2.53%. The result for `Cc1ccc(-n2nnnc2SCN2CCCCC2=O)cc1C` reads -3.89%; that for `O=C(C1CC1)N1CC[C@H](c2nc3ccccc3o2)C1`, 5.84%; that for `Cc1noc(Cl)c1CCC(=O)N1CCCCC1Cn1cccn1` (centres undefined), 1.4%. The result for `Cc1noc(C)c1CC(=O)NCC1(O)CCCN(c2ccccn2)C1` (centres undefined) reads 13.4%. `CCN(CCC1CCN(C(=O)NCc2nncn2CC)CC1)CC1CC1`: the cytotoxicity at 70.5 h was 15.6%. The figure for `CN(C)C(=O)C1CCc2nnc(C(C)(C)C)n21` (centres undefined) is -3.32%. The result for `O=C(c1ccc(N2CCOCC2)nc1)N1CCCC(n2ccnc2)C1` (centres undefined) reads -3.02%; that for `Cn1cnnc1SCCCNC(=O)Nc1ncccn1`, -2.46%. The figure for `CC(NC(=O)CCOc1ccccc1Cl)c1nnc2n1CCC2` (centres undefined) is -16.2%; for `Cc1nc(N)ccc1CC1COc2ccccc2C1` (centres undefined) it is 15%; for `COc1cc(F)ccc1C(C(=O)O)N(C)CCN1CCCC1` (centres undefined) it is 12.1%. As to `Cc1cccc(C2CCCCN2C(=O)CCCS(C)(=O)=O)c1C` (centres undefined), the cytotoxicity at 70.5 h is -9.93%.

In the case of `Cc1ccc(O[C@@H]2C[C@H]3CN(C(=O)c4cccnc4)CCN3C2)cc1`, the cytotoxicity at 70.5 h is 9.15%. As for `CCN1CCNC(=O)C12CCN(C(=O)Cc1ccccn1)CC2`, the cytotoxicity at 70.5 h was -1.44%. The figure for `Nc1cccnc1N1CCCCCC1` is 2.46%; for `COCCN(CCOC)C(=O)c1cnn(C)c1C` it is -10.4%. Take `CC1CCC(NC(=O)CNC2(c3ccc(F)cc3)CCOCC2)CC1` (centres undefined): the cytotoxicity at 70.5 h is -3.54%. The result for `c1ccc(-c2noc(C3CCN(CCn4cccn4)CC3)n2)cc1` reads 12.8%; that for `COc1ccc(-c2cc3nc(CCNC(=O)C4CC4)nn3cn2)cc1`, 16.8%. The figure for `CCc1ccc(C(=O)N2CCC(N(C)C(=O)OC(C)(C)C)C2)o1` (centres undefined) is 0.0812%; for `Cc1cc2n(n1)[C@@H](C(F)(F)F)C[C@@H](C1CCN(C(=O)C3CC3)CC1)N2` it is -2.95%. The figure for `Cc1cncc(C(=O)N2CCC3(CC2)C(=O)Nc2ccccc23)c1` is -7.06%; for `O=C(c1coc(COc2ccccc2F)n1)N1CCCO1` it is -6.81%.

For `CN(CC(=O)Nc1ccon1)S(=O)(=O)c1cc(Cl)ccc1Cl`, the cytotoxicity at 70.5 h was 23.9%. The figure for `O=C(Nc1ccc(-c2ccco2)cc1)C1CCCN(Cc2ccon2)C1` (centres undefined) is 1.57%; for `Cc1cccc(CN2CC[C@H]3[C@H]2CCN3C(=O)c2cnn(C)c2)n1` it is 2.83%; for `O=C(NCCn1ccnc1)c1ccn(-c2ccccc2)n1` it is -1.21%.

With `COCC(=O)N1CCN(C(=O)C2(c3ccc(C)c(OC)c3)CC2)CC1`, the cytotoxicity at 70.5 h was -2.36%. The result for `COc1c(C2CCCN2C(=O)c2ccoc2)c(C)nn1C` (centres undefined) reads 13.3%.

As to `COc1ccc(-c2noc(CN3CCN(c4cnccn4)CC3)n2)cc1`, the cytotoxicity at 70.5 h is -16.7%.

In the case of `NC(=O)CCn1cc(CNCCCc2ccccc2O)c2ccccc21`, the cytotoxicity at 70.5 h worked out at 8.33%. The result for `CSCCC(Nc1nc(C)cc(C)n1)C(=O)NC1CCCC1` (centres undefined) reads -12.6%.

As to `O=C(NC1CCCN(Cc2c(F)cccc2F)C1)c1cnccn1` (centres undefined), the cytotoxicity at 70.5 h was determined as 1.65%. As to `CCc1csc(C2CCCN(C(=O)c3ccc(OC)nn3)C2)n1` (centres undefined), the cytotoxicity at 70.5 h is -9.56%. Turning to `CSc1cccc(NC(=O)CCC(=O)Nc2nccs2)c1`, the cytotoxicity at 70.5 h came to 14.4%.

For `Cc1ccc(CN2CCC3(CC2)CN(c2ccccc2)C(=O)CO3)o1`, the cytotoxicity at 70.5 h was found to be 23.7%. For `c1ccc(CCN2CCCC2c2ccnc(Nc3cnccn3)n2)cc1` (centres undefined), the cytotoxicity at 70.5 h is -3.41%.

With `COc1ccc(CCNC(=O)C(C)Nc2cc(C)ccc2C)cc1` (centres undefined), the cytotoxicity at 70.5 h is -8.81%. The result for `Cc1cc(C(=O)CN(Cc2cccnc2)CC2CCCO2)c(C)[nH]1` (centres undefined) reads -15.9%. The figure for `O=c1cc(-c2ccncc2)nc(-c2ccc(CN3CC[C@H](O)C3)cc2)[nH]1` is -6.15%; for `OCc1n[nH]c(-c2ccc(F)cc2)n1` it is -13.2%. The result for `CN(C)C1CCCN(C(=O)NCc2ccccc2-n2cccn2)C1` (centres undefined) reads 10.5%. As to `Cc1nc(C(C)C)sc1C(=O)N1CCN(C2CCSCC2)CC1`, the cytotoxicity at 70.5 h is 9.03%.

In the case of `Cc1noc([C@@H]2C[C@@H]3CCN(c4nnc(C)s4)C[C@H]3O2)n1`, the cytotoxicity at 70.5 h was -11.6%. The figure for `CN(CCc1ccccn1)C(=O)CCC1CCCN(S(C)(=O)=O)C1` (centres undefined) is 3.47%; for `CC(C(=O)NCc1ccc(N2CCCCC2)nc1)S(C)(=O)=O` (centres undefined) it is -5.42%.
